Laboratory results taken from US20240174691A1, “PYRIMIDINE-FUSED CYCLIC COMPOUND, PREPARATION METHOD THEREFOR AND USE THEREOF” (GENFLEET THERAPEUTICS (SHANGHAI) INC., priority 2021, published 2024).

Legend:
Type in all cases: cell-based, human
[1] = test system: p-ERK in AGS cells containing the KRAS G12D mutation; experiment: Cell p-ERK assay (HTRF, Advance ERK phospho-T202/Y204 kit); settings: 3 hours incubation with compound
Procedure: AGS was purchased from ATCC; catalog No: CRL-1739; F12K was purchased from Gibco; catalog No: 21127-022; FBS was purchased from Gibco; catalog No: 10099-141C; trypsin (containing EDTA) was purchased from Gibco; catalog No: 25200-072; DMSO was purchased from VWRAMMESCO; catalog No: 0231-500ML; 96-well cell culture plates were purchased from Corning; catalog No: 3599; opaque 96-well plates with a white background were purchased from Cisbio; catalog No: 66PL96025; Advance ERK phospho-T202/Y204 kit was purchased from Cisbio; catalog No: 64AERPEH; cell counters were purchased from CHEMOMETEC; model No: NC-200; microplate reader was purchased from PerkinElmer; model No: Envison.
AGS is an endogenous human gastric adenocarcinoma cell line containing the KRAS^G12D mutation, cultured in F12K+10% FBS medium. On the first day of the experiment, cells in the logarithmic growth phase were taken, digested with trypsin (containing EDTA), collected, and counted. Approximately 20000 cells/well were seeded in a 96-well cell culture plate and cultured overnight in an incubator with 5% CO2. 1000× stock solutions of compounds at a 3.16-fold concentration gradient were prepared using DMSO, and diluted 200-fold into a 5× compound stock solution using the medium described above. The 5× compound stock solution was added to each cell culturing well the day after cell seeding at a final concentration of 1× and a DMSO content of 0.1%. DMSO was used as an experimental control. After the compound was added and the incubation was kept for 3 hours, the medium in the culture wells was removed. 50 μl of Cell lysis solution (from Advance ERK phospho-T202/Y204 kit, the same below) was added to each well, mixed well, and incubated for 30 minutes and then 16 μl of the mixed solution was transferred to an opaque 96-well plate with a white background. In addition, 16 μl of cell lysis solution was added to a well as a blank well. After transferring, 4 μl of p-ERK HTRF antibody mixture (from Advance ERK phospho-T202/Y204 kit) was added to each well. After incubation for 4 hours, HTRF fluorescence value (RLU) was read by a microplate reader, and p-ERK level inhibition rate (IR (%)=(RLU control−RLU compound)/(RLU control−RLU blank)×100%) of the compounds was calculated. The concentration of the compounds and corresponding cell p-ERK level inhibition rate were fitted using Prism 8 four-parameters method, and the IC50 value was calculated.

AGS cells (KRAS G12D) = experiment: Cell proliferation inhibition assay, 3D cell model (CellTiter-Glo 3D), AGS; settings: AGS 3D sphere plate, 5 days incubation
Description: (§1) AsPC-1 was purchased from ATCC; catalog No: CRL-1682; AGS was purchased from ATCC; catalog No: CRL-1739; RPMI1640 was purchased from Gibco; catalog No: 11875-093 2235123; F12K was purchased from Gibco; catalog No: 21127-022; FBS was purchased from Gibco; catalog No: 10099-141C; trypsin (containing EDTA) was purchased from Gibco; catalog No: 25200-072; CellTiter Glo-3D was purchased from Progema; catalog No: G9683; 384-well sphere plates were purchased from Corning; catalog No: 3830; opaque 384-well plates with a white background were purchased from Corning; catalog No: 3570; cell counters were purchased from CHEMOMETEC; model: NC-200; microplate reader was purchased from PerkinElmer; model: Envison;
(§2) AsPC-1 is an endogenous human pancreatic cancer cell containing KRAS^G12D mutation, cultured in RPMI-1640 medium containing 10% FBS; AGS is a human gastric cancer cell line containing KRAS^G12D, cultured in F-12K medium containing 10% FBS. Cells in the logarithmic growth phase were taken, digested with trypsin (containing EDTA), collected, and counted. 800 AsPC-1 cells/well or 400 AGS cells/well, respectively, were seeded in a 384-well sphere plate and cultured overnight at 5% CO2 to establish a 3D cell model. 1000× stock solutions of compounds at a 3.16-fold concentration gradient of were prepared using DMSO, diluted 100-fold into a 10× compound stock solution using the medium described above. The 10× compound stock solution was added to each cell on 2nd day after cell seeding at a final concentration of 1× and a DMSO content of 0.1%. DMSO was used as an experimental control, and the medium was used as blank. After the addition of the compounds, the cells were incubated for 5 days. 30 μl of CellTiter-Glo work solution was added to each well, mixed well, and incubated for 30 minutes. After standing at room temperature for 30 minutes, 40 μl of the mixed solution was transferred to an opaque 384-well plate with a white clear bottom. Luminescence chemiluminescence value was read by a microplate reader, and the cell proliferation inhibition rate (IR (%)=(RLU control−RLU compound)/(RLU control−RLU blank)×100%) was calculated. The gradiently diluted concentration of the compounds and corresponding cell proliferation inhibition rate were fitted using XLFit four-parameters method, and the IC50 value was calculated.

AsPC-1 cells (KRAS G12D) = experiment: Cell proliferation inhibition assay, 3D cell model (CellTiter-Glo 3D), AsPC-1; settings: AsPC-1 3D sphere plate, 5 days incubation
Description: as §1, §2

Row | SMILES | IC50 ([1]; Homo sapiens) | IC50 (AGS cells (KRAS G12D); Homo sapiens, 120 h) | IC50 (AsPC-1 cells (KRAS G12D); Homo sapiens, ASPC1, 120 h) | IC50 [1] | IC50 (AGS cells (KRAS G12D)) | IC50 (AsPC-1 cells (KRAS G12D))
1 | CCc1cccc2cc(O)cc(-c3cc4nc(OC[C@@]56CCCN5C[C@H](F)C6)nc5c4c(n3)OC[C@@H]3[C@@H]4CC[C@H](CN53)N4)c12 [Z2, 5-ethyl-4-((5aS,6S,9R)-12-(((2R,7aS)-2-fluorotetrahydro-1H-pyrrolizin-7a(5H)-yl)methoxy)-5a,6,7,8,9,10-hexahydro-5H-4-oxa-3,10a,11,13,14-pentaaza-6,9-methanonaphtho[1,8-ab]hepten-2-yl)naphthalen-2-ol] | 10.7 nM | 10.3 nM | 127 nM |  |  | 
2 | C#Cc1c(F)ccc2cc(O)cc(-c3nc4c5c(nc(OC[C@@]67CCCN6C[C@H](F)C7)nc5c3F)N3C[C@H]5CC[C@H](N5)[C@H]3CO4)c12 [Z131-1] | 1.58 nM | 2.53 nM | 32.8 nM |  |  | 
3 | CCc1cccc2cc(O)cc(-c3nc4c5c(nc(OC[C@@]67CCCN6C[C@H](F)C7)nc5c3F)N3C[C@H]5CC[C@H](N5)[C@H]3CO4)c12 [Z140-1, 5-ethyl-4-((5aS,6S,9R)-1-fluoro-12-(((2R,7aS)-2-fluorotetrahydro-1H-pyrrolizin-7a(5H)-yl)methoxy)-5a,6,7,8,9,10-hexahydro-5H-4-oxa-3,10a,11,13,14-pentaaza-6,9-methanonaphtho[1,8-ab]hepten-2-yl)naphthalen-2-ol] |  |  |  | 2.85 nM | 4 nM | 21.1 nM
4 | C#Cc1cccc2cccc(-c3nc4c5c(nc(OC[C@@]67CCCN6C[C@H](F)C7)nc5c3F)N3C[C@H]5CC[C@H](N5)[C@H]3CO4)c12 [Z350, (5aS,6S,9R)-2-(8-ethynaphthalen-1-yl)-1-fluoro-12-(((2R,7aS)-2-fluorotetrahydro-1H-pyrrolizin-7a(5H)-yl)methoxy)-5a,6,7,8,9,10-hexahydro-5H-4-oxo-3,10a,11,13,14-pentaaza-6,9-methanonaphtho[1,8-ab]heptene] | 47 nM | 181 nM | 203 nM |  |  | 
5 | CCc1cccc2cc(O)cc(-c3cc4nc(OC[C@@]56CCCN5C[C@H](F)C6)nc5c4c(c3Cl)OC[C@@H]3[C@@H]4CC[C@H](CN53)N4)c12 [Z381, 4-((5aS,6S,9R)-3-chloro-13-((2R,7aS)-2-fluorotetrahydro-1H-pyrrolizin-7a(5H)-ylmethoxy)-5a,6,7,8,9,10-hexahydro-5H-6,9-epiminoazepino[2′,1′:3,4][1, 4]oxazepino[5,6,7-de]quinazolin-2-yl)-5-ethylnaphthalen-2-ol] | 436 nM |  |  |  |  | 
